Source: patent publication US9513294B2, “Megastokes amino-triazolyl-BODIPY compounds and applications to live neuron staining and human serum albumin FA1 drug site probing” (National University of Singapore, priority 2012, dated 2016)

Assay: Quantum yield measurements versus Acridine Yellow in EtOH
Type: physicochemical
Conditions: MKCA compound library; quantum yield
In short: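 Fluorescence quantum yield is relative to Acridine Yellow in EtOH (Φ 0.47), with excitation at 460 nm. Integrated emission at 510–700 nm was corrected for absorbance at the excitation wavelength and for solvent refractive index.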

| SMILES | φ (%) |
| --- | --- |
| COc1ccc(OC)c(CNC2=[N+]3C(=C(c4ccc(NC(=O)CCl)cc4)c4ccc(-n5cc(C6CCCC6)nn5)n4[B-]3(F)F)C=C2)c1 [MKCA181-5] | 25.80 |
| COc1ccc(OC)c(CNC2=[N+]3C(=C(c4ccc(NC(=O)CCl)cc4)c4ccc(-n5cc(CC6CCCCC6)nn5)n4[B-]3(F)F)C=C2)c1 [MKCA181-8] | 20.56 |
| COc1ccc(OC)c(CNC2=[N+]3C(=C(c4ccc(NC(=O)CCl)cc4)c4ccc(-n5cc(CN(C)Cc6ccccc6)nn5)n4[B-]3(F)F)C=C2)c1 [MKCA181-18] | 21.65 |
| COc1ccc(OC)c(CNC2=[N+]3C(=C(c4ccc(NC(=O)CCl)cc4)c4ccc(-n5cc(CC(C)C)nn5)n4[B-]3(F)F)C=C2)c1 [MKCA181-43] | 21.21 |
| CCCc1cn(-c2ccc3n2[B-](F)(F)[N+]2=C(NCc4cc(OC)ccc4OC)C=CC2=C3c2ccc(NC(=O)CCl)cc2)nn1 [MKCA181-48] | 20.00 |
| CCCCCC(O)c1cn(-c2ccc3n2[B-](F)(F)[N+]2=C(NCc4cc(OC)ccc4OC)C=CC2=C3c2ccc(NC(=O)CCl)cc2)nn1 (stereo not drawn) [MKCA181-69] | 14.25 |
| COc1ccc(OC)c(CNC2=[N+]3C(=C(c4ccc(NC(=O)CCl)cc4)c4ccc(-n5cc(CO)nn5)n4[B-]3(F)F)C=C2)c1 [MKCA181-70] | 19.42 |
| CCCC(C)c1cn(-c2ccc3n2[B-](F)(F)[N+]2=C(N(C)Cc4ccccc4)C=CC2=C3c2ccc(NC(=O)CCl)cc2)nn1 (stereo not drawn) [MKCA195-3] | 7.95 |
| CN(Cc1ccccc1)C1=[N+]2C(=C(c3ccc(NC(=O)CCl)cc3)c3ccc(-n4cc(C5CC5)nn4)n3[B-]2(F)F)C=C1 [MKCA195-4] | 7.26 |
| CN(Cc1ccccc1)C1=[N+]2C(=C(c3ccc(NC(=O)CCl)cc3)c3ccc(-n4cc(C5CCCC5)nn4)n3[B-]2(F)F)C=C1 [MKCA195-5] | 4.93 |
| CN(Cc1ccccc1)C1=[N+]2C(=C(c3ccc(NC(=O)CCl)cc3)c3ccc(-n4cc(CC5CCCCC5)nn4)n3[B-]2(F)F)C=C1 [MKCA195-8] | 6.17 |
| CN(Cc1ccccc1)Cc1cn(-c2ccc3n2[B-](F)(F)[N+]2=C(N(C)Cc4ccccc4)C=CC2=C3c2ccc(NC(=O)CCl)cc2)nn1 [MKCA195-18] | 3.03 |
| CN(Cc1ccccc1)C1=[N+]2C(=C(c3ccc(NC(=O)CCl)cc3)c3ccc(-n4cc(CCc5ccccc5)nn4)n3[B-]2(F)F)C=C1 [MKCA195-19] | 6.77 |
| CC(C)Cc1cn(-c2ccc3n2[B-](F)(F)[N+]2=C(N(C)Cc4ccccc4)C=CC2=C3c2ccc(NC(=O)CCl)cc2)nn1 [MKCA195-43] | 4.97 |
| CCCCCC(O)c1cn(-c2ccc3n2[B-](F)(F)[N+]2=C(N(C)Cc4ccccc4)C=CC2=C3c2ccc(NC(=O)CCl)cc2)nn1 (stereo not drawn) [MKCA195-69] | 4.20 |

Assay: Absorbance and fluorescence emission spectra (SpectraMax M2)
Type: physicochemical
Conditions: MKCA compound library; absorbance maximum
In short: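 Absorbance and emission maxima measured on a SpectraMax M2 spectrophotometer, which also gave quantum yield data; analysis in GraphPrism.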

| SMILES | λmax Absorp. (nm) |
| --- | --- |
| COc1ccc(OC)c(CNC2=[N+]3C(=C(c4ccc(NC(=O)CCl)cc4)c4ccc(-n5cc(C6CCCC6)nn5)n4[B-]3(F)F)C=C2)c1 [MKCA181-5] | 465 |
| COc1ccc(OC)c(CNC2=[N+]3C(=C(c4ccc(NC(=O)CCl)cc4)c4ccc(-n5cc(CC6CCCCC6)nn5)n4[B-]3(F)F)C=C2)c1 [MKCA181-8] | 465 |
| COc1ccc(OC)c(CNC2=[N+]3C(=C(c4ccc(NC(=O)CCl)cc4)c4ccc(-n5cc(CN(C)Cc6ccccc6)nn5)n4[B-]3(F)F)C=C2)c1 [MKCA181-18] | 462 |
| COc1ccc(OC)c(CNC2=[N+]3C(=C(c4ccc(NC(=O)CCl)cc4)c4ccc(-n5cc(CC(C)C)nn5)n4[B-]3(F)F)C=C2)c1 [MKCA181-43] | 465 |
| CCCc1cn(-c2ccc3n2[B-](F)(F)[N+]2=C(NCc4cc(OC)ccc4OC)C=CC2=C3c2ccc(NC(=O)CCl)cc2)nn1 [MKCA181-48] | 465 |
| CCCCCC(O)c1cn(-c2ccc3n2[B-](F)(F)[N+]2=C(NCc4cc(OC)ccc4OC)C=CC2=C3c2ccc(NC(=O)CCl)cc2)nn1 (stereo not drawn) [MKCA181-69] | 465 |
| COc1ccc(OC)c(CNC2=[N+]3C(=C(c4ccc(NC(=O)CCl)cc4)c4ccc(-n5cc(CO)nn5)n4[B-]3(F)F)C=C2)c1 [MKCA181-70] | 464 |
| CCCC(C)c1cn(-c2ccc3n2[B-](F)(F)[N+]2=C(N(C)Cc4ccccc4)C=CC2=C3c2ccc(NC(=O)CCl)cc2)nn1 (stereo not drawn) [MKCA195-3] | 466 |
| CN(Cc1ccccc1)C1=[N+]2C(=C(c3ccc(NC(=O)CCl)cc3)c3ccc(-n4cc(C5CC5)nn4)n3[B-]2(F)F)C=C1 [MKCA195-4] | 466 |
| CN(Cc1ccccc1)C1=[N+]2C(=C(c3ccc(NC(=O)CCl)cc3)c3ccc(-n4cc(C5CCCC5)nn4)n3[B-]2(F)F)C=C1 [MKCA195-5] | 467 |
| CN(Cc1ccccc1)C1=[N+]2C(=C(c3ccc(NC(=O)CCl)cc3)c3ccc(-n4cc(CC5CCCCC5)nn4)n3[B-]2(F)F)C=C1 [MKCA195-8] | 465 |
| CN(Cc1ccccc1)Cc1cn(-c2ccc3n2[B-](F)(F)[N+]2=C(N(C)Cc4ccccc4)C=CC2=C3c2ccc(NC(=O)CCl)cc2)nn1 [MKCA195-18] | 462 |
| CN(Cc1ccccc1)C1=[N+]2C(=C(c3ccc(NC(=O)CCl)cc3)c3ccc(-n4cc(CCc5ccccc5)nn4)n3[B-]2(F)F)C=C1 [MKCA195-19] | 467 |
| CC(C)Cc1cn(-c2ccc3n2[B-](F)(F)[N+]2=C(N(C)Cc4ccccc4)C=CC2=C3c2ccc(NC(=O)CCl)cc2)nn1 [MKCA195-43] | 465 |
| CCCCCC(O)c1cn(-c2ccc3n2[B-](F)(F)[N+]2=C(N(C)Cc4ccccc4)C=CC2=C3c2ccc(NC(=O)CCl)cc2)nn1 (stereo not drawn) [MKCA195-69] | 466 |

Same assay, conditions: MKCA compound library; fluorescence emission maximum

| SMILES | λmax Emission (nm) |
| --- | --- |
| COc1ccc(OC)c(CNC2=[N+]3C(=C(c4ccc(NC(=O)CCl)cc4)c4ccc(-n5cc(C6CCCC6)nn5)n4[B-]3(F)F)C=C2)c1 [MKCA181-5] | 560 |
| COc1ccc(OC)c(CNC2=[N+]3C(=C(c4ccc(NC(=O)CCl)cc4)c4ccc(-n5cc(CC6CCCCC6)nn5)n4[B-]3(F)F)C=C2)c1 [MKCA181-8] | 562 |
| COc1ccc(OC)c(CNC2=[N+]3C(=C(c4ccc(NC(=O)CCl)cc4)c4ccc(-n5cc(CN(C)Cc6ccccc6)nn5)n4[B-]3(F)F)C=C2)c1 [MKCA181-18] | 563 |
| COc1ccc(OC)c(CNC2=[N+]3C(=C(c4ccc(NC(=O)CCl)cc4)c4ccc(-n5cc(CC(C)C)nn5)n4[B-]3(F)F)C=C2)c1 [MKCA181-43] | 564 |
| CCCc1cn(-c2ccc3n2[B-](F)(F)[N+]2=C(NCc4cc(OC)ccc4OC)C=CC2=C3c2ccc(NC(=O)CCl)cc2)nn1 [MKCA181-48] | 563 |
| CCCCCC(O)c1cn(-c2ccc3n2[B-](F)(F)[N+]2=C(NCc4cc(OC)ccc4OC)C=CC2=C3c2ccc(NC(=O)CCl)cc2)nn1 (stereo not drawn) [MKCA181-69] | 558 |
| COc1ccc(OC)c(CNC2=[N+]3C(=C(c4ccc(NC(=O)CCl)cc4)c4ccc(-n5cc(CO)nn5)n4[B-]3(F)F)C=C2)c1 [MKCA181-70] | 562 |
| CCCC(C)c1cn(-c2ccc3n2[B-](F)(F)[N+]2=C(N(C)Cc4ccccc4)C=CC2=C3c2ccc(NC(=O)CCl)cc2)nn1 (stereo not drawn) [MKCA195-3] | 577 |
| CN(Cc1ccccc1)C1=[N+]2C(=C(c3ccc(NC(=O)CCl)cc3)c3ccc(-n4cc(C5CC5)nn4)n3[B-]2(F)F)C=C1 [MKCA195-4] | 575 |
| CN(Cc1ccccc1)C1=[N+]2C(=C(c3ccc(NC(=O)CCl)cc3)c3ccc(-n4cc(C5CCCC5)nn4)n3[B-]2(F)F)C=C1 [MKCA195-5] | 580 |
| CN(Cc1ccccc1)C1=[N+]2C(=C(c3ccc(NC(=O)CCl)cc3)c3ccc(-n4cc(CC5CCCCC5)nn4)n3[B-]2(F)F)C=C1 [MKCA195-8] | 581 |
| CN(Cc1ccccc1)Cc1cn(-c2ccc3n2[B-](F)(F)[N+]2=C(N(C)Cc4ccccc4)C=CC2=C3c2ccc(NC(=O)CCl)cc2)nn1 [MKCA195-18] | 580 |
| CN(Cc1ccccc1)C1=[N+]2C(=C(c3ccc(NC(=O)CCl)cc3)c3ccc(-n4cc(CCc5ccccc5)nn4)n3[B-]2(F)F)C=C1 [MKCA195-19] | 586 |
| CC(C)Cc1cn(-c2ccc3n2[B-](F)(F)[N+]2=C(N(C)Cc4ccccc4)C=CC2=C3c2ccc(NC(=O)CCl)cc2)nn1 [MKCA195-43] | 575 |
| CCCCCC(O)c1cn(-c2ccc3n2[B-](F)(F)[N+]2=C(N(C)Cc4ccccc4)C=CC2=C3c2ccc(NC(=O)CCl)cc2)nn1 (stereo not drawn) [MKCA195-69] | 582 |
